Measured values taken from PubChem BioAssay AID1963856 (Molecular Pharmacology Branch, DTP, NCI, 2024).
pIC50: −log10 of the molar value.

Test system: LG0567-F671-PDC KRAS tumor spheroid viability
Experiment: Anticancer human tumor LG0567-F671-PDC patient-derived lung adenocarcinoma cell line growth inhibition [KRAS2]
Details: spheroids with HUVEC and MSC; for viability, T/C: stronger effect = lower value
Procedure, shortened: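 KRAS-mutant tumor cells were grown as spheroids with HUVEC endothelial cells and human MSCs as stroma. Targeted agents were tested alone and with KRAS pathway inhibitors. Doses started at or near clinical Cmax, or 10 microM, descending half-log.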

[1] = curve of first compound, second compound 0.1 µM
[2] = curve of first compound, second compound 0.316 µM
[3] = curve of first compound, second compound 1 µM
[4] = curve of first compound, second compound 3.16 µM
[5] = curve of first compound, second compound 10 µM
[6] = second compound 0.1 µM, first compound 0.0316 µM
[7] = second compound 0.316 µM, first compound 0.0316 µM
[8] = second compound 1 µM, first compound 0.0316 µM
[9] = second compound 3.16 µM, first compound 0.0316 µM
[10] = second compound 10 µM, first compound 0.0316 µM
[11] = second compound 0.1 µM, first compound 0.1 µM
[12] = second compound 0.1 µM, first compound 0.316 µM
[13] = second compound 0.1 µM, first compound 1 µM
[14] = second compound 0.1 µM, first compound 3.16 µM
[15] = second compound 0.1 µM, first compound 10 µM
[16] = second compound 0.316 µM, first compound 0.1 µM
[17] = second compound 0.316 µM, first compound 0.316 µM
[18] = second compound 0.316 µM, first compound 1 µM
[19] = second compound 0.316 µM, first compound 3.16 µM
[20] = second compound 0.316 µM, first compound 10 µM
[21] = second compound 1 µM, first compound 0.1 µM
[22] = second compound 1 µM, first compound 0.316 µM
[23] = second compound 1 µM, first compound 1 µM
[24] = second compound 1 µM, first compound 3.16 µM
[25] = second compound 1 µM, first compound 10 µM
[26] = second compound 3.16 µM, first compound 0.1 µM
[27] = second compound 3.16 µM, first compound 0.316 µM
[28] = second compound 3.16 µM, first compound 1 µM
[29] = second compound 3.16 µM, first compound 3.16 µM
[30] = second compound 3.16 µM, first compound 10 µM
[31] = second compound 10 µM, first compound 0.1 µM
[32] = second compound 10 µM, first compound 0.316 µM
[33] = second compound 10 µM, first compound 1 µM
[34] = second compound 10 µM, first compound 3.16 µM
[35] = second compound 10 µM, first compound 10 µM
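Note: drug exposure lasted seven days after spheroids formed for three days.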
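Throughout, for viability, T/C: 100% = DMSO vehicle control viability.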

In the case of CC(=O)Nc1cccc(-n2c(=O)n(C3CC3)c(=O)c3c(Nc4ccc(I)cc4F)n(C)c(=O)c(C)c32)c1 + COc1cc2nc(C)nc(NC(C)c3cc(N)cc(C(F)(F)F)c3)c2cc1OC1CCOC1, the pIC50 [1] was 9.00, the pIC50 [2] was 9.52 and the pIC50 [3] was greater than 10.00. For the same compound, the pIC50 [4] was greater than 10.00, the pIC50 [5] was greater than 10.00 and the viability, T/C (second compound 0.1 µM, first compound 0.0001 µM) was 69.8%. It also gave a viability, T/C (second compound 0.1 µM, first compound 0.000316 µM) of 52.6%, a viability, T/C (second compound 0.1 µM, first compound 0.001 µM) of 53% and a viability, T/C (second compound 0.1 µM, first compound 0.00316 µM) of 39.9%. The viability, T/C (second compound 0.1 µM, first compound 0.01 µM) was 25.9%, the viability, T/C [6] was 8.34% and the viability, T/C (second compound 0.316 µM, first compound 0.0001 µM) was 60.9%. For the same compound, the viability, T/C (second compound 0.316 µM, first compound 0.000316 µM) was 48.7%, the viability, T/C (second compound 0.316 µM, first compound 0.001 µM) was 36.3% and the viability, T/C (second compound 0.316 µM, first compound 0.00316 µM) was 33.2%. The viability, T/C (second compound 0.316 µM, first compound 0.01 µM) was 22.7%, the viability, T/C [7] was 11.8% and the viability, T/C (second compound 1 µM, first compound 0.0001 µM) was 45.4%. For the same compound, the viability, T/C (second compound 1 µM, first compound 0.000316 µM) was 43%, the viability, T/C (second compound 1 µM, first compound 0.001 µM) was 39.7% and the viability, T/C (second compound 1 µM, first compound 0.00316 µM) was 31.2%. The viability, T/C (second compound 1 µM, first compound 0.01 µM) was 26.8%, the viability, T/C [8] was 7.58% and the viability, T/C (second compound 3.16 µM, first compound 0.0001 µM) was 48.6%. The viability, T/C (second compound 3.16 µM, first compound 0.000316 µM) was 43.7%, the viability, T/C (second compound 3.16 µM, first compound 0.001 µM) was 34% and the viability, T/C (second compound 3.16 µM, first compound 0.00316 µM) was 19.2%. It also gave a viability, T/C (second compound 3.16 µM, first compound 0.01 µM) of 17.1%, a viability, T/C [9] of 6.02% and a viability, T/C (second compound 10 µM, first compound 0.0001 µM) of 41.3%. The viability, T/C (second compound 10 µM, first compound 0.000316 µM) was 36.6%, the viability, T/C (second compound 10 µM, first compound 0.001 µM) was 27.2% and the viability, T/C (second compound 10 µM, first compound 0.00316 µM) was 13.4%. For the same compound, the viability, T/C (second compound 10 µM, first compound 0.01 µM) was 5.95% and the viability, T/C [10] was 1.33%.

For COC(=O)c1ccc2c(C(=Nc3ccc(N(C)C(=O)CN4CCN(C)CC4)cc3)c3ccccc3)c(O)[nH]c2c1, the viability, T/C (compound 0.1 µM) was 91% [middle of 5 runs], the viability, T/C (compound 1 µM) was 90.2% [middle of 5 runs] and the viability, T/C (compound 3.16 µM) was 93% [middle of 5 runs]. For the same compound, the viability, T/C (compound 10 µM) was 94.1% [middle of 5 runs] and the pIC50 (curve of compound) was less than 5.00.

COc1cc(Nc2ncc3c(n2)-c2ccc(Cl)cc2C(c2c(F)cccc2OC)=NC3)ccc1C(=O)O + COc1cc2nc(C)nc(NC(C)c3cc(N)cc(C(F)(F)F)c3)c2cc1OC1CCOC1 gave a pIC50 [1] of 5.61, a pIC50 [2] greater than 7.50 and a pIC50 [3] of 6.77. The pIC50 [4] was greater than 7.50, the pIC50 [5] was greater than 7.50 and the viability, T/C [6] was 64.3%. The viability, T/C [11] was 59.9%, the viability, T/C [12] was 60.9% and the viability, T/C [13] was 55.1%. For the same compound, the viability, T/C [14] was 48.9%, the viability, T/C [15] was 36% and the viability, T/C [7] was 46.6%. It also gave a viability, T/C [16] of 50.2%, a viability, T/C [17] of 43.3% and a viability, T/C [18] of 47.1%. The viability, T/C [19] was 36%, the viability, T/C [20] was 28.2% and the viability, T/C [8] was 48.3%. It also gave a viability, T/C [21] of 53.7%, a viability, T/C [22] of 49.5% and a viability, T/C [23] of 44.5%. For the same compound, the viability, T/C [24] was 37.9%, the viability, T/C [25] was 28.8% and the viability, T/C [9] was 40%. The viability, T/C [26] was 44.4%, the viability, T/C [27] was 46.1% and the viability, T/C [28] was 36.9%. The viability, T/C [29] was 32.7%, the viability, T/C [30] was 23.6% and the viability, T/C [10] was 40.2%. It also gave a viability, T/C [31] of 37.8%, a viability, T/C [32] of 37.7% and a viability, T/C [33] of 33.1%. The viability, T/C [34] was 27.6% and the viability, T/C [35] was 18.9%.

CC1(C)CCC(CN2CCN(c3ccc(C(=O)NS(=O)(=O)c4ccc(NCC5CCOCC5)c([N+](=O)[O-])c4)c(Oc4cnc5[nH]ccc5c4)c3)CC2)=C(c2ccc(Cl)cc2)C1 + C=CC(=O)N1CCN(c2nc(=O)n(-c3c(C)ccnc3C(C)C)c3nc(-c4c(O)cccc4F)c(F)cc23)C(C)C1 showed a pIC50 [1] greater than 7.50, a pIC50 [2] greater than 7.50 and a pIC50 [3] greater than 7.50. The pIC50 [4] was greater than 7.50, the pIC50 [5] was greater than 7.50 and the viability, T/C [6] was 31.9%. It also gave a viability, T/C [11] of 28.1%, a viability, T/C [12] of 26.2% and a viability, T/C [13] of 25.7%. For the same compound, the viability, T/C [14] was 11.7%, the viability, T/C [15] was 2.83% and the viability, T/C [7] was 27.2%. The viability, T/C [16] was 28.8%, the viability, T/C [17] was 25.4% and the viability, T/C [18] was 23.1%. It also gave a viability, T/C [19] of 16.5%, a viability, T/C [20] of 6.09% and a viability, T/C [8] of 27.2%. The viability, T/C [21] was 28.5%, the viability, T/C [22] was 25.9% and the viability, T/C [23] was 22.8%. For the same compound, the viability, T/C [24] was 11.2%, the viability, T/C [25] was 3.32% and the viability, T/C [9] was 29%. It also gave a viability, T/C [26] of 28.6%, a viability, T/C [27] of 27.6% and a viability, T/C [28] of 27.1%. For the same compound, the viability, T/C [29] was 11.1%, the viability, T/C [30] was 2.68% and the viability, T/C [10] was 25.8%. The viability, T/C [31] was 26.3%, the viability, T/C [32] was 24.9% and the viability, T/C [33] was 25.6%. The viability, T/C [34] was 5.1% and the viability, T/C [35] was 6.11%.
